In US20190358247A1 (The Medical College of Wisconsin, Inc., priority 2016, published 2019):
pIC50: −log10 of the molar value. Where “and” joins values, the source holds several entries; their conditions need not be identical. Equal values may be shown once.

Columns and labels:
MiaPaCa-2 cells [1] = test: Sytox Green cytotoxicity assay; format: cell-based; conditions: 100 μM, 24 h
Procedure: Cytotoxicity assay. To determine the cytotoxicity of Mito-Met analogs and other TPP^+-conjugated to a long chain aliphatic hydrocarbon, we used the Sytox assay as described previously. MiaPaCa-2 cells were treated for 24 h, and dead cells were monitored in the presence of 200 nM Sytox Green (Invitrogen). The Sytox method labels the nuclei of dead cells yielding green fluorescence. Fluorescence intensities from the dead cells in 96-well plate were acquired in real time every 15 min after 4 h using a plate reader (BMG Labtech, Inc.) equipped with an atmosphere controller set at 37° C. and 5% CO2:95% air, using a fluorescence detection with 485 nm (excitation) and 535 nm (emission). To measure the total cell number, all of the samples in each treatment group were permeabilized by adding Triton X 100 (0.065%) in the presence of Sytox Green for 3 h, and maximal fluorescence intensities were taken as 100%. Data are represented as a percentage of dead cells after normalization to total cell number for each group.
Induction of cell death was monitored by Sytox Green staining, as shown previously. MiaPaCa-2 cells were treated with Mito-Met10 (100 μM), Mito-CP (100 μM), or Met (30 mM) and other controls for 24 h and cell death was measured in real time.

MiaPaCa-2 cells [2] = test: Intracellular uptake by LC-MS/MS
Procedure: Cells were grown on 10 cm dishes and treated with the compounds for 24 h in full media.
Next we investigated the relative uptake of different Mito-Met analogs (Mito-Met2, Mito-Met6, and Mito-Met10) and phenformin in MiaPaCa-2 cells (FIG. 12D). Cells were treated with respective Mito-Met analog (1 μM) for 1 h. Cells were lysed after washing and analyzed for Mito-Met analog by LC-MS.

mitochondrial complex I = mitochondrial complex I (Homo sapiens, UniProt O75251+O75306+P03886); test: Complex I oxygen consumption (pyruvate/malate) in permeabilized cells, Seahorse XF96; format: cell-based
Sequence of mitochondrial complex I (O75306 34-463): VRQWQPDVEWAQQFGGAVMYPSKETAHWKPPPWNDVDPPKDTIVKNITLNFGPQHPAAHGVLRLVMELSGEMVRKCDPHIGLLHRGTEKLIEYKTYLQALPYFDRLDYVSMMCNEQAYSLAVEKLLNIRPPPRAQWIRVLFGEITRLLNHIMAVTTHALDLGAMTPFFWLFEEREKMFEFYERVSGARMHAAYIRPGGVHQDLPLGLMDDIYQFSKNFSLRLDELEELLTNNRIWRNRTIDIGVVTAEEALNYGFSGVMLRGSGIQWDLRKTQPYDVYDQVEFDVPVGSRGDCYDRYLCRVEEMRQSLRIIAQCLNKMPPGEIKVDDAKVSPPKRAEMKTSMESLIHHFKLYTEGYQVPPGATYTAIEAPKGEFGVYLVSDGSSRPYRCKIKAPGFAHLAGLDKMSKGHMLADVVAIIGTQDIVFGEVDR
Sequence of mitochondrial complex I (O75251 39-213): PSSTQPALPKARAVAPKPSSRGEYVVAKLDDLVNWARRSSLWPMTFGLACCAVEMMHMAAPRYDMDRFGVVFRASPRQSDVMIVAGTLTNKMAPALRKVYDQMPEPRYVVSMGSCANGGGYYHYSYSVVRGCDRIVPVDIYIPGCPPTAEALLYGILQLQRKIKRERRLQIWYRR
Sequence of mitochondrial complex I (P03886 whole entry): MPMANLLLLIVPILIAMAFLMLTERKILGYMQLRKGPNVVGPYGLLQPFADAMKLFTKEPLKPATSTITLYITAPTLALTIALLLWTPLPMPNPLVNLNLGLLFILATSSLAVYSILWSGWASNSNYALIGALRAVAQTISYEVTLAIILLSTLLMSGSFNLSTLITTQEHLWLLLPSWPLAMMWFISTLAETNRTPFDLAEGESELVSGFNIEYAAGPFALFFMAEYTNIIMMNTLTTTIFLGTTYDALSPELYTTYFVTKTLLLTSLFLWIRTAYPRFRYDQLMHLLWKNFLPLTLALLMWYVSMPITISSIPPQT
Sequence of mitochondrial complex I (O75489 37-264, further chain): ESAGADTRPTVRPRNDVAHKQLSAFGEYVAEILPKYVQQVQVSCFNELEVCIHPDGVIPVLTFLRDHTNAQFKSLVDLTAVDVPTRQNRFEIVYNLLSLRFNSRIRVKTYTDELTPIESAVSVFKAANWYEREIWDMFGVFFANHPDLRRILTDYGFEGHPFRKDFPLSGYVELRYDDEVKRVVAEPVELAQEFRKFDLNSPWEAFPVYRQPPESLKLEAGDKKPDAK
Sequence of mitochondrial complex I (P03897 whole entry, further chain): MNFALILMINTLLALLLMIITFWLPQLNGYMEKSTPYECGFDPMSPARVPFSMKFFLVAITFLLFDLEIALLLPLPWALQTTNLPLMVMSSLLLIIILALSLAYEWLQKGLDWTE
Procedure: (§1) Respiratory enzyme activity in intact and permeabilized cells. The mitochondrial function in intact and permeabilized pancreatic cancer cells was measured using a Seahorse XF96 Extracellular Flux Analyzer (Seahorse Bioscience, North Billerica, Mass., USA). Unless specified otherwise, assays in intact cells were performed as previously described. Measurement of mitochondrial respiratory complexes in permeabilized cells was performed according to the manufacturer's instructions (Seahorse Bioscience). Briefly, intact cells were permeabilized using 1 nM Plasma Membrane Permeabilizer (PMP, Seahorse Bioscience) immediately before oxygen consumption rate (OCR) measurement by XF96. The oxygen consumption derived from mitochondrial complex I or complex II activity was measured by providing different substrates to mitochondria, e.g., pyruvate/malate for complex I and succinate for complex II activity. Rotenone, malonate and antimycin A were used as specific inhibitors of mitochondrial complex I, II and III activities, respectively.
The oxygen consumption rate was measured using the permeabilized MiaPaCa-2 cells in MAS buffer supplemented with pyruvate. The use of permeabilized cells avoids differences in cellular uptake of compounds. […] We tested the effect of pretreating cells with Mito-Met10 or Met using the permeabilized model. MiaPaCa-2 cells were treated with Met and Mito-Met10 for 24 h and the oxygen consumption studies were performed in these cells after permeabilization.

MCF-10A cells = test: Radiosensitization, clonogenic survival after X-radiation, normal cells; format: cell-based; conditions: 1 μM, 24 h pretreatment
Procedure: Radiation experiments. […] The cells were then treated with X-radiation at a dose of 0, 2, 4, and 6 Gy. The control cells were treated with the same concentration of vehicle (0.1% DMSO) where appropriate. After irradiation, cells were suspended and seeded at various densities (100-8,000 cells per well) in 6-well plates for clonogenic assay as described above. The plates were kept within the incubator and media changed every 3-4 days for 2 weeks. Wells with 10-50 sufficiently large clones were chosen for calculating the cell survival fractions.
Effect of Mito-Met and Met on PDAC radiosensitivity. Both control cells and cells were pretreated for 24 h with 1 mM Met or Mito-Met (1 μM) prior to X-radiation. Cell survival was measured by a clonogenic assay.

FC1242-luc = test: Orthotopic syngeneic FC1242-luc engraftment model, tumor growth; format: in vivo, C57BL/6 mice; conditions: for in vivo tumor growth compared with Met: 1 mg/kg daily i.p.
Text: In vivo studies and bioluminescence imaging.

AMPK = test: Immunoblot of phosphorylated AMPK Thr-172 relative to total AMPK, FC1199 cells; format: cell-based; conditions: murine FC1199, 1 μM, 30 min
Procedure: In this example, the inventors have shown that the mito-met compounds of the present invention cause an increased AMPK activation in cancer cells. In preliminary experiments (FIG. 4), human MiaPaCa2 and murine FC1199 PDAC cells treated 30 min with 1 μM mito-met (MM), 1 mM Met, or the oligomycin positive control were lysed, and proteins size-separated on SDS-PAGE, transferred to PVDF, and probed with an antibody to phosphorylated AMPK Thr-172.
Immunoblotting. MiaPaCa-2 PDAC cells (1×10^6) were plated to 80% confluency in 60 mm dishes and then serum-starved for 5 hours. […] Cells were stimulated with oligomycin as a positive control. After stimulation, cells were washed twice in cold PBS and lysed using a modified RIPA buffer. Lysates were normalized for protein concentration, size separated using reducing SDS-PAGE, electro-transferred to PVDF membranes (Millipore) and then probed using primary and horseradish peroxidase-conjugated secondary antibodies. Antibodies against total or phosphorylated 5′ AMP-activated protein kinase (AMPK) were purchased from Cell Signaling Technology (Danvers, Mass.) and used at the manufacturer's recommended dilutions. Proteins were visualized by chemiluminescence with auto-exposure and quantified by densitometric analysis using the FluorChem HD2 from Cell Biosciences (Santa Clara, Calif.).
AMPK activation in Mito-Met and Met-treated PDAC cells. […]

MiaPaCa-2 cells [3] = test: Oxygen consumption rate in intact cells, Seahorse XF96; format: cell-based, human; conditions: for effect on OCR: immediate
Procedure: as §1
Effects of Met and Mito-Met analogs on mitochondrial bioenergetics in MiaPaCa-2 cells. The oxygen consumption rate (OCR) and the extracellular acidification rate (ECAR) were measured as a readout of mitochondrial function and glycolysis using a Seahorse Bioscience XF96 extracellular flux analyzer. We compared the immediate OCR changes in response to different concentrations (e.g., IC50 or higher values determined by clonogenic assay) of Met, Mito-Met2, Mito-Met6, Mito-Met10, and phenformin (FIG. 13A).
Next we monitored the mitochondrial OCR changes in MiaPaCa-2 cells after 24 h treatment with Met, Mito-Met analogs, and phenformin followed by a washout of the treatments and return to fresh cell culture media.

Question: Which results are given for `Br.N=C(N)NC(=N)NCCCCCCCCCC[P+](c1ccccc1)(c1ccccc1)c1ccccc1` [Mito-Met10]?
Answer: cell death, Sytox Green staining (MiaPaCa-2 cells [1]): no detectable cell death; difference in intracellular uptake and retention, MiaPaCa-2 and MCF-10A cells (MiaPaCa-2 cells [2]; LC-MS): four-fold; cellular uptake relative to phenformin (MiaPaCa-2 cells [2]; MiaPaCa-2, LC-MS): ~100 fold; concentration giving significant decrease in OCR (complex I inhibition) (mitochondrial complex I; 24 h treatment, then permeabilized): 0.75 µM; fold more effective than Met in inhibiting complex I-mediated oxygen consumption (mitochondrial complex I; MiaPaCa-2): 2,000 fold; pIC50 (mitochondrial complex I; read-out: IC50, mitochondrial complex I-mediated oxygen consumption, MiaPaCa-2, 24 h pretreatment, then permeabilized): 6.40 and ~6.37; radiosensitivity in normal cells (MCF-10A cells): no radiosensitivity was observed; in vivo tumor growth compared with Met (FC1242-luc): considerably more potent than Met; in vivo tumor growth compared with Met (FC1242-luc; listed as Mito-Met): considerably more effective than Met; therapeutic index relative to Met (FC1242-luc; mouse, in vivo): ~1,000 fold; times more effective than Met in abrogating PDAC tumor growth (FC1242-luc; mouse, in vivo): at least 100 times; increase in active AMPK (phosphorylated relative to total protein) (AMPK): 1.5-2.5 fold; concentration at which OCR was inhibited (MiaPaCa-2 cells [3]; 24 h treatment, washout): 1 µM; effect on OCR (MiaPaCa-2 cells [3]; 1 μM): did not inhibit OCR; effect on OCR (MiaPaCa-2 cells [3]; ≈10 μM): slight inhibition
